Tests used:
[1] = tested on: acyl-CoA:cholesterol acyltransferase (ACAT); test: Inhibitory activity on acyl-CoA:cholesterol acyltransferase (ACAT), microsomal fraction of intestinal mucosa, [1-14C]oleyl-CoA incorporation into cholesterol esters; format: biochemical, white rabbit; conditions: rabbit intestinal mucosa microsomes
Protocol: The enzyme used in the test was prepared according to the method of Heider et al. [J. Lipid Res. 24, 1127 (1983)]. A white rabbit was killed by blood-letting under anesthesia, after which its intestinal mucosa was collected and then homogenized, and microsomal fraction was obtained by stepwise centrifugation. The microsomal fraction was suspended in 0.154 M phosphate buffer (pH 7.4) and stored at -80°C until use.
ACAT activity was determined by a modification of the method of Helgerud et al. [J. Lipid Res. 22, 271 (1981)] by measuring radioactivity incorporated into cholesterol esters from [1-^14C]oleyl-CoA, as an indication. As to the ACAT-inhibitory activity of each compound to be tested, the inhibition rate was calculated by the following equation. Inhibition rate (%) =([ACAT activity of control group which was given solvent]-[ACAT activity of group treated with compound to be tested])/([ACAT activity of control group which was given solvent])x 100 [formula]

[2] = tested on: rats fed on a high-cholesterol diet; test: Serum cholesterol lowering activity in rats fed on a high-cholesterol diet; format: in vivo, Male Sprague-Dawley rats; conditions: Rattus norvegicus, 96 h; total serum cholesterol; 30 mg per kg of body weight per day for 4 days, suspended in 0.5% carboxymethyl cellulose; blood 24 hours after last administration; read-out: Reduction rate (%)
Protocol: Male Sprague-Dawley rats of 6-week-old were divided into three groups. The first group (normal group) was fed an ordinary diet for 4 days. The second group (control group) was fed a high cholesterol diet (containing 1.0% cholesterol, 1.0% cholic acid and 8.5% coconut oil) for 4 days. The third group (treated group) was fed a high cholesterol diet and was treated with a compound for 4 days.
Simultaneously with the beginning of the above feeding, the compound was suspended in a 0.5% carboxymethyl cellulose solution and administered to the treated group, in a dose of 30 mg (in terms of the compound) per kg of body weight per day for 4 days. A 0.5% carboxymethyl cellulose solution was also administered to the normal group and the control group in the same manner as above.
After 24 hours of the last administration, blood was collected and the cholesterol concentration in serum was measured by an enzymatic method. The reduction rate of the total serum cholesterol concentration was calculated from values obtained for the three groups by the following equation. Choresterol reduction rate (%) =((A) - (B))/((A) - (C))x 100 [formula] wherein A: the serum cholesterol concentration of the control group. B: the serum cholesterol concentration of the treated group. C: the serum cholesterol concentration of the normal group.

[3] = compound concentration 1 (head prints '1 | 0.01 µm')

| Inhibition rate % ([1]; compound concentration 0.01 µm) [%] | Inhibition rate % [1, 3] [%] | Structure (SMILES) | inhibition in vivo at 30 mg/kg [2] [%] |
| --- | --- | --- | --- |
| 38.7 | 99.9 | CC(C)c1cccc(C(C)C)c1NC(=O)Nc1sc(-c2ccccc2)nc1-c1ccccc1Cl [Compound 1, N-[4-(2-Chlorophenyl)-2-phenylthiazol-5-yl]-N'-(2,6-diisopropylphenyl)urea] | 53.8 |
| 55.2 | 99.8 | Cc1ccccc1-c1nc(-c2ccccc2)sc1NC(=O)Nc1c(C(C)C)cccc1C(C)C [Compound 2, N-(2,6-Diisopropylphenyl)-N'-[4-(2-methylphenyl)-2-phenylthiazol-5-yl]urea] | 85.7 |
| – | 46.1 | Cc1nc(-c2ccccc2Cl)c(NC(=O)Nc2ccc(F)cc2F)s1 [Compound 6, N-[4-(2-Chlorophenyl)-2-methylthiazol-5-yl]-N'-(2,4-difluorophenyl)urea] | – |
| – | 96.2 | CCCCCc1nc(-c2ccccc2Cl)c(NC(=O)Nc2c(C(C)C)cccc2C(C)C)s1 [Compound 12, N-[4-(2-Chlorophenyl)-2-n-pentylthiazol-5-yl]-N'-(2,6-diisopropylphenyl)urea] | – |
| – | 99.8 | CCc1cccc(CC)c1NC(=O)Nc1sc(N2CCCCC2)nc1-c1ccccc1 [Compound 17, N-(2,6-Diethylphenyl)-N'-[4-phenyl-2-(N-piperidino)thiazol-5-yl)urea] | – |
| 59.4 | 99.6 | CC(C)c1cccc(C(C)C)c1NC(=O)Nc1nc(-c2ccccc2)sc1-c1ccccc1Cl [Compound 23, N-[5-(2-Chlorophenyl)-2-phenylthiazol-4-yl]-N'-(2,6-diisopropylphenyl)urea] | 108 |
| – | 97.9 | CC(C)c1cccc(C(C)C)c1NC(=O)Nc1nc(N2CCOCC2)sc1-c1ccccc1Cl [Compound 24, N-[5-(2-Chlorophenyl)-2-(N-morpholino)thiazol-4-yl]-N'-(2,6-diisopropylphenyl)urea] | – |
| 64.1 | – | CCc1cccc(CC)c1NC(=O)Nc1nc(-c2ccccc2)sc1-c1ccccc1C [Compound 28, N-(2,6-Diethylphenyl)-N'-[5-(2-methylphenyl)-2-phenylthiazol-4-yl]urea] | 87.8 |
| 62.0 | – | Cc1ccccc1-c1nc(-c2ccccc2)oc1NC(=O)Nc1c(C(C)C)cccc1C(C)C [Compound 33, N-(2,6-Diisopropylphenyl)-N'-[4-(2-methylphenyl)-2-phenyloxazol-5-yl]urea] | 73.2 |
| – | 79.5 | CC(C)c1cccc(C(C)C)c1NC(=O)Nc1c(-c2ccccc2Cl)nc(-c2ccccc2)n1Cc1ccccc1 [Compound 36, N-[1-Benzyl-4-(2-chlorophenyl)-2-phenylimidazol-5-yl]-N'-(2,6-diisopropylphenyl)urea] | – |

The next lines start with the molecule.

| Structure (SMILES) | Inhibition rate % ([1]; compound concentration 0.01 µm) [%] | Inhibition rate % [1, 3] [%] | inhibition in vivo at 30 mg/kg [2] [%] |
| --- | --- | --- | --- |
| Cc1nc(-c2ccccc2)c(NC(=O)Nc2c(C(C)C)cccc2C(C)C)s1 [Compound 3, N-(2,6-Diisopropylphenyl)-N'-(2-methyl-4-phenylthiazol-5-yl)urea] | – | 92.1 | – |
| Cc1nc(-c2ccccc2Cl)c(NC(=O)Nc2c(C(C)C)cccc2C(C)C)s1 [Compound 4, N-[4-(2-Chlorophenyl)-2-methylthiazol-5-yl]-N'-(2,6-diisopropylphenyl)urea] | 63.9 | – | – |
| CCc1cccc(CC)c1NC(=O)Nc1sc(C)nc1-c1ccccc1Cl [Compound 5, N-[4-(2-Chlorophenyl)-2-methylthiazol-5-yl]-N'-(2,6-diethylphenyl)urea] | – | 97.8 | – |
| Cc1nc(-c2ccccc2C)c(NC(=O)Nc2c(C(C)C)cccc2C(C)C)s1 [Compound 8, N-(2,6-DiisopropylphenyI)-N'-[2-methyl-4-(2-methylphenyl)thiazol-5-yl]urea] | – | 99.1 | – |
| Cc1nc(-c2ccccc2C)c(NC(=O)Nc2ccc(F)cc2F)s1 [Compound 9, N-(2,4-Difluorophenyl)-N'-[2-methyl-4-(2-methylphenyl)thiazol-5-yl]urea] | – | 49.4 | – |
| CCc1nc(-c2ccccc2Cl)c(NC(=O)Nc2c(C(C)C)cccc2C(C)C)s1 [Compound 11, N-[4-(2-Chlorophenyl)-2-ethylthiazol-5-yl]-N'-(2,6-diisopropylphenyl)urea] | 42.9 | 99.2 | 46.2 |
| CC(C)c1cccc(C(C)C)c1NC(=O)Nc1sc(C2CCCCC2)nc1-c1ccccc1Cl [Compound 13, N-[4-(2-Chlorophenyl)-2-cyclohexylthiazol-5-yl]-N'-(2,6-diisopropylphenyl)urea] | – | 72.7 | – |
| CC(C)c1cccc(C(C)C)c1NC(=O)Nc1sc(N(C)C)nc1-c1ccccc1Cl [Compound 15, N-[4-(2-Chlorophenyl)-2-dimethylaminothiazol-5-yl]-N'-(2,6-diisopropylphenyl)urea] | – | 99.2 | – |
| CC(C)c1cccc(C(C)C)c1NC(=O)Nc1sc(N2CCCCC2)nc1-c1ccccc1Cl [Compound 19, N-[4-(2-Chlorophenyl)-2-(N-piperidino)thiazol-5-yl]-N'-(2,6-diisopropylphenyl)urea] | – | 99.9 | – |
| CC(C)c1cccc(C(C)C)c1NC(=O)Nc1sc(N2CCOCC2)nc1-c1ccccc1Cl [Compound 21, N-[4-(2-Chlorophenyl)-2-(N-morpholino)thiazol-5-yl]-N'-(2,6-diisopropylphenyl)urea] | – | 99.8 | – |
| Cc1nc(NC(=O)Nc2c(C(C)C)cccc2C(C)C)c(-c2ccccc2Cl)s1 [Compound 25, N-[5-(2-Chlorophenyl)-2-methylthiazol-4-yl]-N'-(2,6-diisopropylphenyl)urea] | 88.1 | – | 39.1 |
| CCc1cccc(CC)c1NC(=O)Nc1nc(C)sc1-c1ccccc1Cl [Compound 26, N-[5-(2-Chlorophenyl)-2-methylthiazol-4-yl]-N'-(2,6-diethylphenyl)urea] | 51.4 | – | – |
| Cc1ccccc1-c1sc(-c2ccccc2)nc1NC(=O)Nc1c(C(C)C)cccc1C(C)C [Compound 27, N-(2,6-Diisopropylphenyl)-N'-[5-(2-methylphenyl)-2-phenylthiazol-4-yl]urea] | 86.5 | – | 61.7 |
| Cc1nc(NC(=O)Nc2c(C(C)C)cccc2C(C)C)c(-c2ccccc2C)s1 [Compound 29, N-(2,6-Diisopropylphenyl)-N'-[2-methyl-5-(2-methylphenyl)thiazol-4-yl]urea] | 90.2 | – | 46.1 |
| CSc1ccccc1-c1sc(-c2ccccc2)nc1NC(=O)Nc1c(C(C)C)cccc1C(C)C [Compound 30, N-(2,6-Diisopropylphenyl)-N'-[5-(2-methylthiophenyl)-2-phenylthiazol-4-yl]urea] | 76.8 | – | 75.7 |
| Cc1ccccc1-c1oc(-c2ccccc2)nc1NC(=O)Nc1c(C(C)C)cccc1C(C)C [Compound 31, N-(2,6-Diisopropylphenyl)-N'-[5-(2-methylphenyl)-2-phenyloxazol-4-yl]urea] | 70.6 | – | 59.8 |
| CC(C)c1cccc(C(C)C)c1NC(=O)Nc1nc(-c2ccccc2)n(C)c1-c1ccccc1Cl [Compound 35, N-[5-(2-Chlorophenyl)-1-methyl-2-phenylimidazol-4-yl]-N'-(2,6-diisopropylphenyl)urea] | 33.5 | 99.6 | – |
| CC(C)c1cccc(C(C)C)c1NC(=O)Nc1nc(-c2ccccc2)n(COCC[Si](C)(C)C)c1-c1ccccc1Cl [Compound 40, N-[5-(2-Chlorophenyl)-2-phenyl-1-(2-trimethylsilyl)ethoxymethylimidazol-4-yl]-N'-(2,6-diisopropylphenyl)urea] | – | 99.4 | – |
| COCn1c(-c2ccccc2)nc(NC(=O)Nc2c(C(C)C)cccc2C(C)C)c1-c1ccccc1Cl [Compound 42, N-[5-(2-Chlorophenyl)-1-methoxymethyl-2-phenylimidazol-4-yl]-N'-(2,6-diisopropylphenyl)urea] | – | 99.2 | – |
| COc1ccc(Cn2c(-c3ccccc3)nc(NC(=O)Nc3c(C(C)C)cccc3C(C)C)c2-c2ccccc2Cl)cc1 [Compound 44, N-[5-(2-Chlorophenyl)-1-(4-methoxybenzyl)-2-phenylimidazol-4-yl]-N'-(2,6-diisopropylphenyl)urea] | – | 99.2 | – |
| CC(C)c1cccc(C(C)C)c1NC(=O)Nc1nc(-c2ccccc2)[nH]c1-c1ccccc1Cl [Compound 45, N-[4(5)-(2-Chlorophenyl)-2-phenylimidazol-5(4)-yl]-N'-(2,6-diisopropylphenyl)urea] | – | 77.9 | – |

Source: EP0761658A1, “Azole-phenyl urea derivatives as ACAT inhibitors and their production” (NIHON NOHYAKU CO., LTD., priority 1995, dated 1997)
